This note sets out measurements from patent US8853228B2, “Heterocyclic analogs of propargyl-linked inhibitors of dihydrofolate reductase” (University of Connecticut, priority 2011, dated 2014).

Usually IC50 stands for the concentration that inhibits the measured activity by half. As a reminder, the MIC is the least concentration at which growth counts as inhibited.

Assay [1] relates to Streptococcus pyogenes. In words: Antibacterial MIC, broth microdilution with Alamar Blue. It counts as cell-based. The procedure: (§1) For susceptibility testing, 10 μL of glycerol stock was suspended in a 10 mL shake flask culture of chemically defined Isosensitest broth (Oxoid) supplemented with 2% w/v glucose. A sample of the shake flask culture was diluted to 1×10^6 cells/mL in media and added to 96-well test plates (100 μL per well) containing test compounds dispensed in DMSO (2 μL). After an incubation period (30° C.) determined from the strain specific doubling time, a 0.03% w/v aqueous solution of resazurin (10 μL) was added and the plates were allowed to incubate; each well was then scored for dye reduction.

In assay [2] the test system is S. aureus 13709 (MRSA). The assay is described as above. Type of assay: cell-based, Staphylococcus aureus. As to the method: as §1
Assay [3] addresses CgDHFR (Candida glabrata (strain ATCC 2001 / BCRC 20586 / JCM 3761 / NBRC 0622 / NRRL Y-65 / CBS 138) (Yeast) (Nakaseomyces glabratus), UniProt Q6FPH0). As to the kind of experiment: biochemical. The settings on record: for Selectivity: Table 7, hDHFR vs CgDHFR. An excerpt: CgDHFR: The gene coding CgDHFR was amplified by PCR from C. glabrata genomic DNA obtained from ATCC. The gene was inserted in a pET41 vector that includes a C-terminal histidine tag for nickel affinity chromatography. E. coli cells were transformed and the resulting plasmid was verified by sequencing. The protein was expressed in E. coli BL21(DE3) cells with isopropyl β-D-thiogalactoside induction. Following growth, the cells were lysed with BugBuster (Novagen) and centrifuged; the supernatant was loaded on a Ni-NTA column. The column was washed with 20 mM Tris (pH 8.0)/0.4 M NaCl and the protein was eluted using a gradient of 20 mM Tris (pH 8.0), 0.3 M NaCl, 20% glycerol, 0.1 mM EDTA, 2 mM DTT, 250 mM imidazole. Fractions containing CgDHFR were identified by SDS-PAGE, combined and desalted using a PD-10 column with a buffer containing 20 mM Tris pH 8.0, 20% glycerol, 0.1 mM EDTA and 2 mM DTT. The protein was concentrated to 13 mg/mL.
(§2) Enzyme and inhibitor were allowed to incubate for 5 min before adding dihydrofolate to initiate the reaction. Enzyme assays were performed at least four times. IC50 values and their standard deviations were calculated in the presence of varying concentrations of inhibitor near the IC50 concentration.

Assay [4] relates to C. glabrata. As to the kind of experiment: Antifungal assay (MIC, Alamar Blue). Type of assay: cell-based, Candida glabrata. The settings on record: for MIC (Cg): YM media. The procedure: Antifungal assays were performed using C. glabrata as a suspension in 50% glycerol at −78° C. For susceptibility testing, a streak of stock culture was made on SDA agar and grown at 30° C. for 48 h. One pure colony of the test organism was recovered from the plate, suspended in appropriate media and grown in a 5 mL shake flask culture. A sample of the shake flask culture was diluted to 1×10^5 cells/mL in media and added to 96-well test plates (100 μL per well) containing test compounds dispensed in DMSO (1 μL). Amphotericin and ketoconazole were used as controls. After an incubation period determined from the strain specific doubling time, Alamar Blue (10 μL) was added, allowed to incubate; each well was scored for dye reduction.
Several representative compounds were also evaluated in thymidine-depleted media. It has been shown that high levels of thymidine interfere with accurate susceptibility testing of antifolates. To compensate for this, antifolates are frequently evaluated in a controlled minimal media with a low thymidine concentration. […] In addition, the compounds were also evaluated for mammalian cell toxicity using MCF-10 and HepG2 cell lines. Cellular selectivity is reported as the IC50 value for the MCF-10 human cell line divided by the MIC value (μg/mL) (Table 8).

Assay [5] has as its system MCF-10 cells. In words: Mammalian cell toxicity, MCF-10. Type of assay: cell-based, human. The settings on record: cytotoxicity, Table 6. As to the method: Adherent cell lines were maintained in Eagle's Minimal Essential Media (Sigma-Aldrich, St. Louis, Mo., USA) with 2 mM glutamine and Earle's Balanced Salt Solution (HyClone, Logan, Utah, USA) adjusted to contain 1.5 g/L sodium bicarbonate, 0.1 mM non-essential amino acids, 1 mM sodium pyruvate and 10% fetal calf serum. Fetal calf serum used in these assays was lot matched throughout. […] Toxicity assays were conducted between passages 10-20. Target compound toxicity was measured by incubating the test compound with the cells for 4 h, washing the cells and finally treating the cells with Alamar Blue. After 12-24 h, the fluorescence of the reduced dye was measured. Fluorescence intensity as a function of test compound concentration was fit to the Fermi equation, using non-linear least squares regression analysis, to estimate IC50 values.

The target in assay [6] is ChDHFR-TS (Cryptosporidium hominis, UniProt Q27552). In words: ChDHFR enzyme inhibition assay. It counts as biochemical. As to the method:
as §2
Compounds were evaluated in spectrophotometric enzyme assays using ChDHFR-TS and hDHFR. Inhibition constants (IC50) were measured (see Table 4). […] The compound abbreviations in Table 4 refer to the following compounds: […]

In assay [7] the target is hDHFR (Homo sapiens (Human), UniProt P00374). As to the kind of experiment: hDHFR enzyme inhibition assay. The settings on record: read-out: IC50 (hDHFR). It counts as biochemical. The procedure:
hDHFR: The gene for hDHFR was amplified using PCR from cDNA obtained from ATCC. The gene was inserted in a pET41 vector with a C-terminal histidine tag for affinity chromatography. The resulting construct was verified by sequencing. The hDHFR protein was expressed in E. coli and purified using a nickel affinity column.
as §2
Enzyme inhibition assays were performed by monitoring the rate of NADPH oxidation by the DHFR enzyme at an absorbance of 340 nm. Assays were performed in the presence of saturating concentrations of NADPH and initiated with dihydrofolate. All assays were completed at 25° C. in a buffer containing 20 mM TES pH 7.0, 50 mM KCl, 10 mM 2-mercaptoethanol, 0.5 mM EDTA and 1 mg/mL BSA. Inhibition was measured at least three times with inhibitor concentrations near the IC50 value and the average IC50 value is reported with a standard deviation.

[8] abbreviates: Table 7, read-out: IC50 (CgDHFR).
Setting [9] is: Table 4, read-out: IC50 (ChDHFR).
Where [10] appears, read: C. glabrata, Inact: not active at 2 mM (~600 μg/mL).

Values after ≈ are worked out from the molar mass of the structure shown. Where two headings read alike, the source gives them in different places. Some results are limits rather than exact numbers.

Chain of CgDHFR (Q6FPH0 1-217): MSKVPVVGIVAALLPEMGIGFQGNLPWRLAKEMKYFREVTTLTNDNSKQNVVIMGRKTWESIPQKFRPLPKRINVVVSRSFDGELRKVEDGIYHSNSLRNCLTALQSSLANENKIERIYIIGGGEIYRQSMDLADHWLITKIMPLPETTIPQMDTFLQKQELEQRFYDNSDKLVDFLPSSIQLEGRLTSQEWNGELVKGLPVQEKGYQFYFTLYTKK
Chain of ChDHFR-TS (Q27552 1-521): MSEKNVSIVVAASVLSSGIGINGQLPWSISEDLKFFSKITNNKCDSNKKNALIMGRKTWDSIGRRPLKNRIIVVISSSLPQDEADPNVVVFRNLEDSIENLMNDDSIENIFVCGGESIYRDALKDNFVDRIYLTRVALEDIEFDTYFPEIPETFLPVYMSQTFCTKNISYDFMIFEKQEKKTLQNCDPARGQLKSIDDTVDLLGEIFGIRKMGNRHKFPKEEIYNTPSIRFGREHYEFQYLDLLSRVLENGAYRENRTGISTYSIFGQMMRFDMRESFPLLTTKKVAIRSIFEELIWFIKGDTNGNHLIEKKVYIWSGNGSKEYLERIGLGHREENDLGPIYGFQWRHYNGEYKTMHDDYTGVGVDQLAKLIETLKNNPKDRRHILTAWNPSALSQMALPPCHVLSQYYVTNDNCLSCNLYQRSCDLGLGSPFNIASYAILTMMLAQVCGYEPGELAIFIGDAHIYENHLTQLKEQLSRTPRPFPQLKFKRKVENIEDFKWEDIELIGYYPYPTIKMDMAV
Chain of hDHFR (P00374 whole entry): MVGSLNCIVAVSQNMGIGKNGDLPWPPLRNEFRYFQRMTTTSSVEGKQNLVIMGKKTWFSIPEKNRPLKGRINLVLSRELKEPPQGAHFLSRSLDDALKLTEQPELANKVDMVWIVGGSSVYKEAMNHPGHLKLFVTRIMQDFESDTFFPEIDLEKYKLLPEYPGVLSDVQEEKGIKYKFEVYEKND

As to `COc1cc(-c2cc(C)cc(C)c2)cc([C@@H](C)C#Cc2c(C)nc(N)nc2N)c1` [Compound 140], the “MIC S. pyogenes” value in assay [1] is 0.1 µg/mL (≈ 0.259 µM); in assay [1] (Table 6), 0.097 µg/mL (≈ 0.251 µM). Further, in assay [2], the “MIC S. aureus / MRSA” value worked out at 5.8 µg/mL (≈ 15 µM). Moreover, the “MIC MRSA” value in assay [2] (Table 6) was found to be 5.76 µg/mL (≈ 14.9 µM). Further, the “IC50 against CgDHFR” value in assay [3] is recorded as “subnanomolar”. Besides, the IC50 stood at 0.55 ± 0.3 nM in assay [3] (setting [8]); 0.55 nM in assay [3] (Table 11, read-out: CgDHFR IC50); 47000 nM in assay [5]. Also, in assay [4] (C. glabrata), the “MIC (Cg)” value was 3.1 µg/mL (≈ 8.02 µM). Besides, the “Antifungal activity MIC” value in assay [4] (Table 11, C. glabrata) is 3 µg/mL.
On to `COc1cc(C(C)c2cnc(N)nc2N)cc(OC)c1OC` (racemic) [C7-methyl TMP (rac), reference compound], for which, in assay [6] (read-out: IC50 against ChDHFR), the IC50 turned out to be 340000 nM.
With `COc1cc(-c2c(C)cccc2C)cc(C(C)C#Cc2c(C)nc(N)nc2N)c1` (stereo not drawn) [Compound D26M, 5-[3-(5-methoxy-2′6′-dimethylbiphenyl-3-yl)but-1-yn-1-yl]-6-methylpyrimidine-2,4-diamine], in assay [6] (setting [9]), the IC50 is 2.1 ± 0.5 nM.
For the molecule `COc1cc(-c2c(C)cccc2C)ccc1C(C)C#Cc1c(C)nc(N)nc1N` (stereo not drawn) [Compound F26M, 5-[3-(3-methoxy-2′6′-dimethylbiphenyl-4-yl)but-1-yn-1-yl]-6-methylpyrimidine-2,4-diamine], the IC50 in assay [7] (Table 4) came to 3370 ± 15 nM; in assay [6] (setting [9]), 7.4 ± 1.9 nM. The “Selectivity Ratio (IC50 ChDHFR/IC50 hDHFR)” value in assay [6] (Table 4) stood at 455.
In the case of `COc1ccc(OC)c(CC#Cc2c(C)nc(N)nc2N)c1` [Compound 10], the IC50 in assay [3] (Table 3, read-out: CgDHFR IC50) amounted to 32 nM. For the same molecule, the “Antifungal activity MIC” value in assay [4] (setting [10]) turned out to be 56 µg/mL.
Regarding `CCc1nc(N)nc(N)c1C#CCc1cc(OC)ccc1OC` [Compound 11], the IC50 is 8.2 nM in assay [3] (Table 3, read-out: CgDHFR IC50) and ≤ 25 nM in assay [3] (read-out: IC50 against CgDHFR). Also, the “Antifungal activity MIC” value in assay [4] (setting [10]) stood at 78 µg/mL.
Consider `COc1cc(C(C)C#Cc2cnc(N)nc2N)cc(OC)c1OC` (stereo not drawn) [Compound 2, 2,4-Diamino-5-(3-(3,4,5-trimethoxyphenyl)but-1-ynyl)pyrimidine], for which the IC50 in assay [3] (Table 3, read-out: CgDHFR IC50) stood at 36 nM. Further, the “Antifungal activity MIC” value in assay [4] (setting [10]) is listed as “Inact”.
The molecule `COc1cc(-c2ccccc2C)ccc1C(C)C#Cc1c(C)nc(N)nc1N` (stereo not drawn) [Compound F2M, 5-[3-(3-methoxy-2′-methylbiphenyl-4-yl)but-1-yn-1-yl]-6-methylpyrimidine-2,4-diamine] came in with an IC50 in assay [6] (IC50 (ChDHFR), Table 4) of 36 ± 0.6 nM. For the same molecule, the “Selectivity Ratio (IC50 ChDHFR/IC50 hDHFR)” value in assay [6] (Table 4) is 77.
As to `CCC(c1cc(OC)c(OC)c(OC)c1)c1cnc(N)nc1N` (racemic) [C7-ethyl TMP (rac), reference compound], the IC50 in assay [6] (read-out: IC50 against ChDHFR) amounted to 4000 nM.
Regarding `COc1cc(C(C)C#Cc2c(C)nc(N)nc2N)cc(N2CCN(C)CC2)c1` (stereo not drawn) [Compound 158], the results for the IC50 in assay [7] (Table 7) and in assay [3] (setting [8]) were 280 ± 17 nM and 30 ± 3 nM, respectively. This molecule came in with a Selectivity in assay [3] of 9 ± 1. Moreover, in assay [4] (C. glabrata), the “MIC (Cg)” value turned out to be 95 µg/mL (≈ 250 µM).
For the molecule `COc1cc(C(C#Cc2c(C)nc(N)nc2N)OC)cc(OC)c1OC` (stereo not drawn) [Compound 8, 5-[3-methoxy-3-(3,4,5-trimethoxyphenyl)prop-1-yn-1-yl]-6-methylpyrimidine-2,4-diamine], the 50% inhibitory concentration (IC50) in assay [3] (CgDHFR IC50, Table 3) amounted to 30 nM. Further, in assay [4] (setting [10]), the “Antifungal activity MIC” value is recorded as “Inact”.
The molecule `COc1cc(-c2ccccc2)cc([C@H](C)C#Cc2c(C)nc(N)nc2N)c1` (single isomer, unassigned) [D (S), 5-[3-(5-methoxy-biphenyl-3-yl)but-1-yn-1-yl]-6-methylpyrimidine-2,4-diamine] showed an IC50 in assay [6] (IC50 (ChDHFR), Table 4) of 30 nM.
Molecule `CN(Cc1cnc2nc(N)nc(N)c2n1)c1ccc(C(=O)N[C@@H](CCC(=O)O)C(=O)O)cc1` [methotrexate, (S)-2-(4-(((2,4-diaminopteridin-6-yl)methyl)methylamino)benzamido)pentanedioic acid, reference compound] gave an IC50 in assay [6] (IC50 against ChDHFR) of 23 nM.
On to `COc1ccc(OC)c(CC#Cc2cnc(N)nc2N)c1` [Compound 9], for which the IC50 is 21 nM in assay [3] (Table 3, read-out: CgDHFR IC50) and ≤ 25 nM in assay [3] (read-out: IC50 against CgDHFR). Also, the “Antifungal activity MIC” value in assay [4] (setting [10]) turned out to be 72 µg/mL.
With `COc1cc(-c2c(C(C)C)cccc2C(C)C)cc(C(C)C#Cc2c(C)nc(N)nc2N)c1` (stereo not drawn) [Compound D26I, 5-[3-(5-methoxy-2′6′-diisopropylbiphenyl-3-yl)but-1-yn-1-yl]-6-methylpyrimidine-2,4-diamine], the IC50 in assay [6] (setting [9]) came to 10 nM.
In the case of `COc1cc(C(C#Cc2cnc(N)nc2N)OC)cc(OC)c1OC` (stereo not drawn) [Compound 4, 5-[3-methoxy-3-(3,4,5-trimethoxyphenyl)prop-1-yn-1-yl]pyrimidine-2,4-diamine], the IC50 in assay [3] (Table 3, read-out: CgDHFR IC50) turned out to be 450 nM. In assay [4] (setting [10]), the “Antifungal activity MIC” value is listed as “Inact”.
In the case of `CCc1nc(N)nc(N)c1C#CC(C)c1cc(OC)cc(N2C[C@@H](C)O[C@@H](C)C2)c1` (mixture of isomers) [Compound 157], the IC50 in assay [7] (Table 7) is 200 ± 4.5 nM; in assay [3] (setting [8]) it was 38 ± 2 nM. The same molecule displayed a Selectivity in assay [3] of 5.0 ± 1. In addition, the “MIC (Cg)” value in assay [4] (C. glabrata) worked out at 13 µg/mL (≈ 31.7 µM).
In the case of `COc1cc(-c2ccccc2C)cc(C(C)C#Cc2c(C)nc(N)nc2N)c1` (stereo not drawn) [Compound D6M, 5-[3-(5-methoxy-6′-methylbiphenyl-3-yl)but-1-yn-1-yl]-6-methylpyrimidine-2,4-diamine], the IC50 in assay [6] (setting [9]) was 2.1 ± 0.3 nM.
`COc1cc(C(O)C#Cc2c(C)nc(N)nc2N)cc(OC)c1OC` (stereo not drawn) [Compound 7, 3-(2,4-diamino-6-methylpyrimidin-5-yl)-1-(3,4,5-trimethoxyphenyl)prop-2-yn-1-ol]: the IC50 in assay [3] (CgDHFR IC50, Table 3) was 39 nM. The “Antifungal activity MIC” value in assay [4] (setting [10]) is “Inact”.
For the molecule `COc1cc(C(O)C#Cc2cnc(N)nc2N)cc(OC)c1OC` (stereo not drawn) [Compound 3, 3-(2,4-diaminopyrimidin-5-yl)-1-(3,4,5-trimethoxyphenyl)prop-2-yn-1-ol], in assay [3] (Table 3, read-out: CgDHFR IC50), the IC50 was found to be 2700 nM. In assay [4] (Nakaseomyces glabratus, C. glabrata, Inact: not active at 2 mM (~600 μg/mL), read-out: Antifungal activity MIC), the MIC came out at 328 µg/mL (≈ 993 µM).
